Test results published in patent US11999697B2, “Methods and compositions for inhibition of dihydroorotate dehydrogenase” (OHIO STATE INNOVATION FOUNDATION, priority 2018, dated 2024).
Structures can show the parent of a compound that is named as a salt.

Assays:
[1] = test system: IDH2-R140Q/Flt3-ITD spleen cells (murine AML); test: IDH2-R140Q/Flt3-ITD adoptive transfer model; type: in vivo, NCG mice; details: daily oral gavage; Cpd3 50 mg/kg, enasidenib 100 mg/kg
Source text: Leukemic cells derived from a spontaneous murine model of Idh2/Flt3 AML, as reported by Shih et al (Cancer Discov. 7(5):494-505), were engrafted via adoptive transfer to generate an aggressive model of AML suitable for testing of therapeutic agents. Briefly, 6-8 week old mice harboring a heterozygous internal tandem duplication of FMS-like tyrosine kinase 3 (Flt3-ITD), a heterozygous point mutation of isocitrate dehydrogenase 2 (Idh2-R140Q) preceeded by a loxP flanked STOP codon, and Cre recombinase under the MX dynamin like GTPase 1 (Mx1) promoter were injected i.p. with polyinosinic:polycytidylic acid (poly(I:C)), activating Cre recombinase and inducing hematopoietic-specific expression of the Idh2-R140Q mutation. Spleen cells from these mice were collected after the development of lethal AML (defined by study removal criteria), typically 8-14 months post-poly(I:C) injection. 1×10^5 spleen cells from a single leukemic donor were engrafted by tail vein injection into 6 week old immune deficient NOD-Prkdc^em26Cd52//2rg^em26Cd22/NjuCrl mice (NCG; Charles River). At one week post-engraftment, animals were randomized to vehicle (5% EtOH, 10% Kolliphor EL, in PBS), enasidenib (100 mg/kg), and HOSU-3 (50 mg/kg) treatment arms and dosed by daily oral gavage. Personnel responsible for animal monitoring, dosing, and decisions regarding euthanasia were blinded to treatment arms. Survival was assessed using Kaplan-Meier analysis and p-values were determined using the log-rank test and adjusted using Holm's method.

[2] = test system: AML cell lines (MOLM13, MV4-11, THP1, HL-60, and OCI-AML3)
Procedure: MTS assay for cell growth/viability: Mitochondrial activity was measured to determine cell proliferation using an MTS assay (tetrazolium dye 3′[4,5-dimethylthiazol-2-yl]-2,5-diphenyl-tetrazolium bromide). Metabolically active cells convert MTS tetrazolium salt into a purple formazan product that is soluble in tissue culture medium. The amount of formazan measured at 490 nm absorbance is proportional to the number of proliferating cells. […] Triplicate wells were set up for each condition. At 96 hours, the MTS reagent was added and after approximately 4 hours the plates were read in a spectrophotometer. MTS assays in primary AML cells were done in a similar manner as the cell lines with the following changes: 100K cells were plated per well, and the MTS was done in the presence of an HS5 stromal cell line to support the in vitro growth of the primary cells. Primary cells were incubated with MTS for approximately 8-12 hours (varies with the samples) before reading the absorbance.
Cell proliferation assays were carried out using the MTS assay described herein using five AML cell lines (i.e., MOLM13, MV4-11, THP1, HL-60, and OCI-AML3) with varied genetic backgrounds. The assays were carried out in a blinded fashion.

Structure (SMILES)	Median survival [1]	cytotoxicity compared to the free acid form and brequinar [2]
CC(C)(O)CNc1nc(Nc2ccnc(C(F)(F)F)c2)nc(-c2cccc(C(F)(F)F)n2)n1 [Enasidenib, reference compound]	34 days	–
CCOc1ccc(-c2ccc(-c3cc(C(=O)O)c4cc(F)ccc4n3)cc2)cc1 [sodium salt form of Cpd3, Sodium 2-(4′-Ethoxy-[1,1′-biphenyl]-4-yl)-6-fluoroquinoline-4-carboxylate]	–	equally cytotoxic against AML cell lines
